Values after ≈ are worked out from the molar mass of the structure shown.
What was measured:
[1] = test system: A. fumigatus Tsukuba strain; assay: Anti-Aspergillus activity, MIC measurement; assay type: cell-based; settings: RPMI1640, 42-48 hours at 35° C., visual inspection, read-out: Anti-Aspergillus Activity (minimum inhibitory concentration, MIC)
Procedure, shortened: (§1)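 C. albicans CAF2-1 was grown 48 h at 30° C. in SDB and diluted in RPMI1640 to 1.2×10^3 cells/mL. Frozen A. fumigatus Tsukuba was diluted to 4.5×10^3 cells/mL. Compounds, two-fold serially diluted in DMSO from 2.5 mg/mL, were cultured aerobically with fungi for 42-48 h at 35° C.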

[2] = test system: C. albicans CAF2-1 strain; assay: Anti-Candida activity, MIC measurement; assay type: cell-based; settings: CAF21STRAIN, C. albicans CAF2-1, RPMI1640, 42-48 hours at 35° C., visual inspection, read-out: Anti-Candida Activity (minimum inhibitory concentration, MIC)
Procedure, shortened: as §1

Compound | MIC [1] | MIC [2]
Nc1ccc(-c2cc(Cc3ccc(OCc4ccc(F)cn4)c(F)c3)no2)c(N)n1 [Example 157, 3-(3-(3-Fluoro-4-(5-fluoro-pyridin-2-ylmethoxy)-benzyl)-isoxazol-5-yl)pyridin-2,6-diamine] | 0.78 µg/mL (≈ 1.91 µM) | 3.13 µg/mL (≈ 7.65 µM)
Nc1ncccc1-c1cnn(Cc2ccc(OCc3ccccc3)nc2)c1 [Example 191, 3-(1-(6-Benzyloxy-pyridin-3-ylmethyl)-1H-pyrazol-4-yl)-pyridin-2-ylamine] | 0.39 µg/mL (≈ 1.09 µM) | 0.2 µg/mL (≈ 0.56 µM)
Nc1ncccc1-c1cc(Cc2ccc(Oc3ccccc3F)cc2)no1 [Example 83] | 0.2 µg/mL (≈ 0.553 µM) | 0.2 µg/mL (≈ 0.553 µM)
Nc1ccc(-c2cc(Cc3ccc(OCc4ccc(F)c(F)c4)nc3)no2)c(N)n1 [Example 152, 3-(3-(6-(3,4-Difluoro-benzyloxy)-pyridin-3-ylmethyl)-isoxazol-5-yl)-pyridin-2,6-diamine] | 0.39 µg/mL (≈ 0.953 µM) | 0.78 µg/mL (≈ 1.91 µM)
Nc1ccc(-c2cc(Cc3ccc(CCC4CCCO4)cc3)no2)c(N)n1 (stereo not drawn) [Example 143] | 0.78 µg/mL (≈ 2.14 µM) | 0.39 µg/mL (≈ 1.07 µM)
COCc1ccc(-c2cc(Cc3ccc(Cc4ccc(Cl)o4)cc3)no2)c(N)n1 [Example 168, 3-(3-(4-(5-Chloro-furan-2-ylmethyl)-benzyl)-isoxazol-5-yl)-6-methoxymethyl-pyridin-2-ylamine] | 0.78 µg/mL (≈ 1.9 µM) | 0.78 µg/mL (≈ 1.9 µM)
Nc1ccc(-c2cc(Cc3ccc(OCc4ccc(F)cc4F)nc3)no2)c(N)n1 [Example 153, 3-(3-(6-(2,4-Difluoro-benzyloxy)-pyridin-3-ylmethyl)-isoxazol-5-yl)-pyridin-2,6-diamine] | 0.39 µg/mL (≈ 0.953 µM) | 1.56 µg/mL (≈ 3.81 µM)
Nc1ccc(-c2cc(Cc3ccc(OCc4ccncc4)cc3)no2)c(N)n1 [Example 107, 3-(3-(4-(Pyridin-4-ylmethoxy)-benzyl)-isoxazol-5-yl)-pyridin-2,6-diamine] | 0.78 µg/mL (≈ 2.09 µM) | 0.78 µg/mL (≈ 2.09 µM)
Nc1ccc(-c2cc(Cc3ccc(OCc4ccc(F)cn4)cc3)no2)cn1 [Example 184, 5-(3-(4-(5-Fluoro-pyridin-2-ylmethoxy)-benzyl)-isoxazol-5-yl)-pyridin-2-ylamine] | 0.39 µg/mL (≈ 1.04 µM) | > 25 µg/mL
Nc1ncc(F)cc1-c1cc(Cc2ccc(OCc3cc(Cl)ccn3)cc2)no1 [Example 175, 3-(3-(4-(4-Chloro-pyridin-2-ylmethoxy)-benzyl)-isoxazol-5-yl)-5-fluoro-pyridin-2-ylamine] | 1.56 µg/mL (≈ 3.8 µM) | 0.78 µg/mL (≈ 1.9 µM)
Cc1nc(N)ccc1-c1cc(Cc2ccc(COc3ccccn3)cc2)no1 [Example 187] | 0.78 µg/mL (≈ 2.09 µM) | 1.56 µg/mL (≈ 4.19 µM)
Nc1ccc(-c2cc(Cc3ccc(NCc4ccccc4)cc3)no2)c(N)n1 [Example 128, 3-(3-(4-Benzylamino-benzyl)-isoxazol-5-yl)-pyridin-2,6-diamine] | 0.39 µg/mL (≈ 1.05 µM) | 0.2 µg/mL (≈ 0.538 µM)
Nc1ccc(-c2cc(Cc3ccc(OCc4cccnc4)cc3)no2)c(N)n1 [Example 108, 3-(3-(4-(Pyridin-3-ylmethoxy)-benzyl)-isoxazol-5-yl)-pyridin-2,6-diamine] | 3.13 µg/mL (≈ 8.38 µM) | 1.56 µg/mL (≈ 4.18 µM)
Nc1ncccc1-c1cnn(Cc2ccc(Oc3ccccc3)nc2)c1 [Example 193, 3-(1-(6-Phenoxy-pyridin-3-ylmethyl)-1H-pyrazol-4-yl)-pyridin-2-ylamine] | 0.78 µg/mL (≈ 2.27 µM) | 0.78 µg/mL (≈ 2.27 µM)
Nc1ccc(-c2cc(Cc3ccc(Oc4ccc(F)cc4)cc3)no2)c(N)n1 [Example 141, 3-(3-(4-(4-Fluoro-phenoxy)-benzyl)-isoxazol-5-yl)-pyridin-2,6-diamine] | 0.2 µg/mL (≈ 0.531 µM) | 0.39 µg/mL (≈ 1.04 µM)
Nc1ccc(-c2cc(Cc3ccc(Sc4ccccc4)nc3)no2)c(N)n1 [Example 161, 3-(3-(6-Phenylsulfanyl-pyridin-3-ylmethyl)-isoxazol-5-yl)-pyridin-2,6-diamine] | 0.39 µg/mL (≈ 1.04 µM) | 0.39 µg/mL (≈ 1.04 µM)
Nc1ccc(-c2cc(Cc3ccc(OCc4cccc(F)c4)cc3)no2)c(N)n1 [Example 19, 3-(3-(4-(3-Fluoro-benzyloxy)-benzyl)-isoxazol-5-yl)-pyridin-2,6-diamine] | 0.39 µg/mL (≈ 0.999 µM) | 0.78 µg/mL (≈ 2 µM)
Nc1ncccc1-c1cc(Cc2ccc(OCc3cccnc3)cc2)no1 [Example 50, 3-(3-(4-(Pyridin-3-ylmethoxy)-benzyl)-isoxazol-5-yl)-pyridin-2-ylamine] | 1.56 µg/mL (≈ 4.35 µM) | 0.78 µg/mL (≈ 2.18 µM)
Nc1ccc(-c2cc(Cc3ccc(CSc4ccccc4)cc3)no2)c(N)n1 [Example 217, 3-(3-(4-Phenylsulfanylmethyl-benzyl)-isoxazol-5-yl)-pyridin-2,6-diamine] | 0.2 µg/mL (≈ 0.515 µM) | 0.1 µg/mL (≈ 0.257 µM)
Nc1ccc(-c2cc(Cc3cccc(-c4ccccn4)c3)no2)c(N)n1 [Example 146, 3-(3-(3-Pyridin-2-yl-benzyl)-isoxazol-5-yl)-pyridin-2,6-diamine] | > 25 µg/mL | 6.25 µg/mL (≈ 18.2 µM)
Cc1cccc(COc2ccc(Cc3cc(-c4cccnc4N)on3)cc2)n1 [Example 10, 3-(3-(4-(6-Methyl-pyridin-2-ylmethoxy)-benzyl)-isoxazol-5-yl)-pyridin-2-ylamine] | 0.78 µg/mL (≈ 2.09 µM) | 0.39 µg/mL (≈ 1.05 µM)

Compound | MIC [1] | MIC [2]
C#Cc1cccc(COc2ccc(Cc3cc(-c4ccc(N)nc4N)on3)cc2)c1 [Example 214, 3-(3-(4-(3-Ethynyl-benzyloxy)-benzyl)-isoxazol-5-yl)-pyridin-2,6-diamine] | 0.39 µg/mL (≈ 0.984 µM) | 0.39 µg/mL (≈ 0.984 µM)
Nc1ncccc1-c1cnn(Cc2ccc(Oc3ccccc3)cc2)c1 [Example 34, 3-(1-(4-Phenoxy-benzyl)-1H-pyrazol-4-yl)-pyridin-2-ylamine] | 0.39 µg/mL (≈ 1.14 µM) | 0.78 µg/mL (≈ 2.28 µM)
Nc1ncccc1-c1cc(Cc2ccc(Oc3ccccc3F)nc2)no1 [Example 74, 3-(3-(6-(2-Fluoro-phenoxy)-pyridin-3-ylmethyl)-isoxazol-5-yl)-pyridin-2-ylamin] | 0.2 µg/mL (≈ 0.552 µM) | 0.1 µg/mL (≈ 0.276 µM)
Nc1ncccc1-c1cc(Cc2cccc(OCC3CC3)c2)no1 [Example 66, 3-(3-(3-Cyclopropylmethoxy-benzyl)-isoxazol-5-yl)-pyridin-2-ylamine] | 0.78 µg/mL (≈ 2.43 µM) | 0.1 µg/mL (≈ 0.311 µM)
Nc1ncccc1-c1cnn(Cc2ccc(COCC3CC3)cc2)c1 [Example 195, 3-(1-(4-Cyclopropylmethoxymethyl-benzyl)-1H-pyrazol-4-yl)-pyridin-2-ylamine] | 0.78 µg/mL (≈ 2.33 µM) | 0.39 µg/mL (≈ 1.17 µM)
Nc1ccc(-c2cc(Cc3ccc(OCc4ccncc4)cc3)no2)cn1 [Example 180] | 1.56 µg/mL (≈ 4.35 µM) | 0.39 µg/mL (≈ 1.09 µM)
Nc1ccc(-c2cc(Cc3ccc(Cc4ccc(Cl)o4)cc3)no2)cn1 [Example 182, 5-(3-(4-(5-Chloro-furan-2-ylmethyl)-benzyl)-isoxazol-5-yl)-pyridin-2-ylamine] | 0.2 µg/mL (≈ 0.547 µM) | > 25 µg/mL
Nc1ccc(-c2cc(Cc3ccc(CCc4ccccn4)cc3)no2)c(N)n1 [Example 159, 3-(3-(4-(2-Pyridin-2-yl-ethyl)-benzyl)-isoxazol-5-yl)-pyridin-2,6-diamine] | 3.13 µg/mL (≈ 8.43 µM) | 0.78 µg/mL (≈ 2.1 µM)
Nc1ncccc1-c1cc(Cc2cccc(OCc3ccccc3)c2)no1 [Example 61, 3-(3-(3-Benzyloxy-benzyl)-isoxazol-5-yl)-pyridin-2-ylamine] | 0.39 µg/mL (≈ 1.09 µM) | 0.2 µg/mL (≈ 0.56 µM)
COc1cccc(COc2ccc(Cc3cc(-c4ccc(N)nc4N)on3)cc2)c1 [Example 162, 3-(3-(4-(3-Methoxy-benzyloxy)-benzyl)-isoxazol-5-yl)-pyridin-2,6-diamine] | 0.39 µg/mL (≈ 0.969 µM) | 0.78 µg/mL (≈ 1.94 µM)
Nc1ccc(-c2cc(Cc3cncc(Oc4ccccc4)c3)no2)c(N)n1 [Example 145, 3-(3-(5-Phenoxy-pyridin-3-ylmethyl)-isoxazol-5-yl)-pyridin-2,6-diamine] | 12.5 µg/mL (≈ 34.8 µM) | 6.25 µg/mL (≈ 17.4 µM)
Nc1ncccc1-c1cc(Cc2ccc(Oc3ccccn3)cc2)no1 [Example 209, 3-(3-(4-(Pyridin-2-yloxy)-benzyl)-isoxazol-5-yl)-pyridin-2-ylamine] | 0.39 µg/mL (≈ 1.13 µM) | 0.2 µg/mL (≈ 0.581 µM)
Nc1ncccc1-c1cc(Cc2ccc(CCc3ccco3)cc2)no1 [Example 80, 3-(3-(4-(2-Furan-2-yl-ethyl)-benzyl)-isoxazol-5-yl)-pyridin-2-ylamine] | 0.78 µg/mL (≈ 2.26 µM) | 0.2 µg/mL (≈ 0.579 µM)
COCc1ccc(-c2cc(Cc3ccc(Cc4ccc(C)o4)cc3)no2)c(N)n1 [Example 165] | 1.56 µg/mL (≈ 4.01 µM) | 0.78 µg/mL (≈ 2 µM)
Nc1ccc(-c2cc(Cc3ccc(OC4CCCC4)cc3)no2)c(N)n1 [Example 137, 3-(3-(4-Cyclopentyloxy-benzyl)-isoxazol-5-yl)-pyridin-2,6-diamine] | 1.56 µg/mL (≈ 4.45 µM) | 0.78 µg/mL (≈ 2.23 µM)
Cc1ccc(Cc2ccc(Cc3cc(-c4ccc(N)nc4)on3)cc2)o1 [Example 178, 5-(3-(4-(5-Methyl-furan-2-ylmethyl)-benzyl)-isoxazol-5-yl)-pyridin-2-ylamine] | 0.2 µg/mL (≈ 0.579 µM) | 0.39 µg/mL (≈ 1.13 µM)
Cc1ccc(COc2ccc(Cc3cc(-c4cccnc4N)on3)cc2)nc1 [Example 42, 3-(3-(4-(5-Methyl-pyridin-2-ylmethoxy)-benzyl)-isoxazol-5-yl)-pyridin-2-ylamine] | 1.56 µg/mL (≈ 4.19 µM) | 0.78 µg/mL (≈ 2.09 µM)
COCc1ccc(-c2cc(Cc3ccc(Oc4ccccc4)nc3)no2)c(N)n1 [Example 167] | 0.78 µg/mL (≈ 2.01 µM) | 1.56 µg/mL (≈ 4.02 µM)
Nc1ncccc1-c1cnn(Cc2ccc(COC3CCC3)cc2)c1 [Example 197, 3-(1-(4-Cyclobutoxymethyl-benzyl)-1H-pyrazol-4-yl)-pyridin-2-ylamine] | 1.56 µg/mL (≈ 4.66 µM) | 3.13 µg/mL (≈ 9.36 µM)
Nc1ncccc1-c1cc(Cc2ccc(OCc3ccccn3)cc2)on1 [Example 189, 3-(5-(4-(Pyridin-2-ylmethoxy)-benzyl)-isoxazol-3-yl)-pyridin-2-ylamine] | 0.2 µg/mL (≈ 0.558 µM) | 0.05 µg/mL (≈ 0.14 µM)
C#CCOc1ccc(Cc2cc(-c3ccc(N)nc3N)on2)cc1 [Example 219, 3-(3-(4-Prop-2-ynyloxy-benzyl)-isoxazol-5-yl)-pyridine-2,6-diamine] | 3.13 µg/mL (≈ 9.77 µM) | 3.13 µg/mL (≈ 9.77 µM)
